# Experimental data from ChEMBL document CHEMBL3112452, “Neutral β-Lactams Inactivate High Molecular Mass Penicillin-Binding Proteins of Class B1, Including PBP2a of MRSA” (ACS Med Chem Lett, 2014).
# Legend:
# [1] = system: Bacillus subtilis; assay: Antimicrobial activity against wild type Bacillus subtilis 168 after 18 hrs by serial dilution method; assay type: functional; details: subsp. subtilis str. 168, 18 h
# [2] = Inhibition of Staphylococcus aureus PBP2a
# [3] = system: Escherichia coli; assay: Antimicrobial activity against wild type Escherichia coli MM 294 after 18 hrs by serial dilution method; assay type: functional; details: MM 294, 18 h
# [4] = Inhibition of Bacillus subtilis 168 PBP2 after 30 mins by SDS-PAGE; design: species or system Bacillus subtilis subsp. subtilis str. 168
# [5] = Inhibition of Escherichia coli PBP4 after 30 mins by SDS-PAGE
# [6] = Inhibition of Escherichia coli PBP5/6 after 30 mins by SDS-PAGE
# [7] = Inhibition of Bacillus subtilis 168 PBP1 after 30 mins by SDS-PAGE; design: species or system Bacillus subtilis subsp. subtilis str. 168
# [8] = Inhibition of Escherichia coli BL21(DE3) PBP2 after 30 mins by SDS-PAGE
# [9] = Inhibition of Escherichia coli PBP1a/1b after 30 mins by SDS-PAGE
# [10] = system: Bacillus licheniformis; assay: Antimicrobial activity against Bacillus licheniformis NRS 1264 after 18 hrs by serial dilution method; assay type: functional; details: NRS 1264, 18 h
# [11] = Inhibition of Escherichia coli PBP3 after 30 mins by SDS-PAGE
# [12] = target: T1, D-alanyl-D-alanine carboxypeptidase DacA (Bacillus subtilis (strain 168), UniProt P08750); assay: Inhibition of Bacillus subtilis 168 PBP5 after 30 mins by SDS-PAGE; design: species or system Bacillus subtilis subsp. subtilis str. 168
# T1 sequence (P08750 whole entry): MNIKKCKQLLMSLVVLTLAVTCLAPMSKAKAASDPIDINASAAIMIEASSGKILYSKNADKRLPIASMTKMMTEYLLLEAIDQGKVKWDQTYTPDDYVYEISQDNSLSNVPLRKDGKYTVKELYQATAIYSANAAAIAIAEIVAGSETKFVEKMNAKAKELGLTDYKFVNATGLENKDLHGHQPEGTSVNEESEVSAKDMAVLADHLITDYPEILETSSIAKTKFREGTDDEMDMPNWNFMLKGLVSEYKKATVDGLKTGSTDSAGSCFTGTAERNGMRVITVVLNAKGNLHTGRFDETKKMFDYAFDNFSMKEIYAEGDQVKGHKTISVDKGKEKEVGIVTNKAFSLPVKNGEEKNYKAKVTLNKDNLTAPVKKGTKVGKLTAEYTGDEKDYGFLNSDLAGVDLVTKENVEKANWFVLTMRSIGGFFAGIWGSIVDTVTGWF
# [13] = system: Staphylococcus epidermidis; assay: Antimicrobial activity against wild type Staphylococcus epidermidis ATCC 12228 after 18 hrs by serial dilution method; assay type: functional; details: ATCC 12228, 18 h
# [14] = target: T2, Penicillin-binding protein 3 (Bacillus subtilis (strain 168), UniProt P42971); assay: Inhibition of Bacillus subtilis 168 PBP3 after 30 mins by SDS-PAGE; design: species or system Bacillus subtilis subsp. subtilis str. 168
# T2 sequence (P42971 whole entry): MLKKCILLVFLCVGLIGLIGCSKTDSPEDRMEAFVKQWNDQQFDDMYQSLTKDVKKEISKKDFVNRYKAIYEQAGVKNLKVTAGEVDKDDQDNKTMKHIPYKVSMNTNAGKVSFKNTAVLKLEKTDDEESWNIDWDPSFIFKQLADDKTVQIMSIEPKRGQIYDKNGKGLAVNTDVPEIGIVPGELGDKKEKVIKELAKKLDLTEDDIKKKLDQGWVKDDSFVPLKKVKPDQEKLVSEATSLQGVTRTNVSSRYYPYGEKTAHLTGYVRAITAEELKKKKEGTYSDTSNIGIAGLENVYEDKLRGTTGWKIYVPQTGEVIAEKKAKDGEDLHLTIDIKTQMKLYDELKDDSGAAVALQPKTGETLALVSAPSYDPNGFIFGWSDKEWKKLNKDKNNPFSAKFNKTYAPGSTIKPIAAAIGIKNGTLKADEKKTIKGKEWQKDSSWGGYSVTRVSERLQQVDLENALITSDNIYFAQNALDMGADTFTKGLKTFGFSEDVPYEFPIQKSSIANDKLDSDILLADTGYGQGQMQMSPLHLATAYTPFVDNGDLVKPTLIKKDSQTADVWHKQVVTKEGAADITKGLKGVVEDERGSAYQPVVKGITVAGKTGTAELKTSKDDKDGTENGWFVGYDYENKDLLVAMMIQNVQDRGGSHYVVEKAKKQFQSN
# [15] = target: T3, Penicillin-binding protein 4 (Bacillus subtilis (strain 168), UniProt P40750); assay: Inhibition of Bacillus subtilis 168 PBP4 after 30 mins by SDS-PAGE; design: species or system Bacillus subtilis subsp. subtilis str. 168
# T3 sequence (P40750 whole entry): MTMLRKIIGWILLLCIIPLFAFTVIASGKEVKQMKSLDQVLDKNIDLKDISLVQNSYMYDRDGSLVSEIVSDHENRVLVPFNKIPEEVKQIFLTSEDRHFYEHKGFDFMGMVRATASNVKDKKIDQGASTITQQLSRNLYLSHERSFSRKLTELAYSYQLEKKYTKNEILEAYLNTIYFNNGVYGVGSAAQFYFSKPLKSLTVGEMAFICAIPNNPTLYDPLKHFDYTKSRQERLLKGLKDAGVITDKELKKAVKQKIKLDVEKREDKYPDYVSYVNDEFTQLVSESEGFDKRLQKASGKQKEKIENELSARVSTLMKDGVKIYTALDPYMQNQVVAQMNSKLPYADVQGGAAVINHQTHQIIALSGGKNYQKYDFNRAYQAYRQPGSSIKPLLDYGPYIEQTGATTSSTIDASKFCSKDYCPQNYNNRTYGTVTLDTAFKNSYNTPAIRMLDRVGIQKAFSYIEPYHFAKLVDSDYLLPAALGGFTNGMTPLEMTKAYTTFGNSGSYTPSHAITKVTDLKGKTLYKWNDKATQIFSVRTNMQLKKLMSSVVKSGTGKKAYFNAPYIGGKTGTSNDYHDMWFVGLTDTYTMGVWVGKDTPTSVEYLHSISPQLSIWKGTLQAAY
MIC [1] [µM],kinact/Ki [4] [M⁻¹ s⁻¹],kinact/Ki [7] [M⁻¹ s⁻¹],Compound,Second-order inactivation rate constant (kinact/Ki) [2] [M⁻¹ s⁻¹],MIC [3] [µM],Ki [5] [M⁻¹ s⁻¹],Ki [6] [M⁻¹ s⁻¹],Ki [8] [M⁻¹ s⁻¹],Ki [9] [M⁻¹ s⁻¹],MIC [10] [µM],Ki [11] [M⁻¹ s⁻¹],Ki [12] [M⁻¹ s⁻¹],MIC [13] [µM],Ki [14] [M⁻¹ s⁻¹],Ki [4] [M⁻¹ s⁻¹],Ki [7] [M⁻¹ s⁻¹],Ki [15] [M⁻¹ s⁻¹]
25,,,COC(=O)[C@@H]1N2C(=O)[C@@H](NC(=O)COc3ccccc3)[C@H]2SC1(C)C,1.5,,,,,,,,,,,,,
1400,19000,110000,CC1(C)S[C@@H]2[C@H](NC(=O)COc3ccccc3)C(=O)N2[C@H]1C(=O)O [PENICILLIN V],,750,3200,96,128,184,1500,420,620,370,28,,,
,,,CC(=O)OCC1=C(C(N)=O)N2C(=O)[C@@H](NC(=O)Cc3cccs3)[C@H]2SC1,1.3,,,,,,,,,,,,,
,,,CC1=CN2C(=O)[C@@H](NC(=O)[C@H](N)c3ccccc3)[C@H]2SC1,0.34,,,,,,,,,,,,,

Compound,MIC [1] [µM],kinact/Ki [4] [M⁻¹ s⁻¹],kinact/Ki [7] [M⁻¹ s⁻¹],Second-order inactivation rate constant (kinact/Ki) [2] [M⁻¹ s⁻¹],MIC [3] [µM],Ki [5] [M⁻¹ s⁻¹],Ki [6] [M⁻¹ s⁻¹],Ki [8] [M⁻¹ s⁻¹],Ki [9] [M⁻¹ s⁻¹],MIC [10] [µM],Ki [11] [M⁻¹ s⁻¹],Ki [12] [M⁻¹ s⁻¹],MIC [13] [µM],Ki [14] [M⁻¹ s⁻¹],Ki [4] [M⁻¹ s⁻¹],Ki [7] [M⁻¹ s⁻¹],Ki [15] [M⁻¹ s⁻¹]
CC1(C)S[C@@H]2[C@H](NC(=O)COc3ccccc3)C(=O)N2[C@H]1C(N)=O,2.3,,,2,10000,30,0.6,1.5,0.74,1.5,18,17,95,5.3,440,340,190
